{
  "source": "patent US4235909A",
  "about": "“Octahydro-2H-pyrrolo[3,4-g]quinolines” (Eli Lilly and Company, priority 1979, dated 1980)",
  "key": {"[1]": {"system": "6-hydroxydopamine-lesioned rats", "assay": "Rat turning test in 6-hydroxydopamine-lesioned (nigro-neostriatal-lesioned) rats, dopamine agonist activity", "assay_type": "in vivo", "conditions": "1 mg/kg intraperitoneal; for % of Rats Exhibiting Turning Behavior: aqueous solution; for Average Number of Turns/rat: first 15 minutes after end of latency period", "procedure": "In this test, nigro-neostriatal-lesioned rats are employed, as prepared by the procedure of Ungerstedt and Arbuthnott, Brain Res, 24, 485 (1970). A compound having dopamine agonist activity causes the rats to turn in circles contralateral to the side of the lesion. After a latency period, which varies from compound to compound, the number of turns is counted over a 15-minute period.\nThe compounds were dissolved in water and the aqueous solution injected into the rat by the intraperitoneal route at a dose level of 1 mg/kg."}, "[2]": {"assay": "Acute lethality after intraperitoneal dosage (LD50)", "assay_type": "in vivo", "procedure": "In using the compounds of this invention to inhibit prolactin secretion or to treat Parkinson's syndrome or for other pharmacologic action, a compound according to Formula I above in which R^2 is C1 -C3 alkyl or allyl and R^1 is H or C1 -C3 alkyl, or a salt thereof with a pharmaceutically-acceptable acid, is administered to a subject suffering from Parkinsonism or in need of having this prolactin level reduced in an effective amount to treat Parkinsonism or to reduce prolactin. Oral administration is preferred. If parenteral administration is used, the injection is preferably by the subcutaneous route using an appropriate pharmaceutical formulation. […] In particular, with intravenous or intramuscular administration, a water soluble pharmaceutically-acceptable salt is employed. For oral administration, the compound either as the free base or in the form of a salt thereof can also be mixed with standard pharmaceutical excipients and loaded into empty telescoping gelatin capsules or pressed into tablets. The oral dosage range is from about […]. to 10 mg./kg. of mammalian weight and the parenteral dose range from about 0.0025 to 2.5 mg./kg."}, "[3]": {"system": "prolactin", "assay": "Inhibition of prolactin secretion in reserpine-treated male rats", "assay_type": "in vivo, rat (Sprague-Dawley)", "conditions": "serum one hour after treatment, reserpine pretreated male rats", "procedure": "The compounds of this invention are also useful as prolactin inhibitors and as such they can be employed in the treatment of inappropriate lactation such as postpartum lactation and galactorrhea.\nAdult male rats of the Sprague-Dawley strain weighing about 200 g. were housed in an air-conditioned room with controlled lighting (lights on […].) and fed lab chow and water ad libitum. Each rat received an intraperitoneal injection of 2.0 mg. of reserpine in aqueous suspension 18 hours before administration of the test drug. The purpose of the reserpine was to keep prolactin levels uniformly elevated. The compounds under test were dissolved in 10 percent ethanol, and were injected intraperitoneally at doses of 0.5 and 5 mg/kg. Each compound was administered at each dose level to a group of 10 rats, and a control group of 10 intact males received an equivalent amount of 10 percent ethanol. One hour after treatment, all rats were killed by decapitation, and 150 μl aliquots of serum were assayed for prolactin.\nThe difference between the prolactin level of the treated rats and prolactin level of the control rats, divided by the prolactin level of the control rats gives the percent inhibition of prolactin secretion attributable to the compounds of this invention. In the table, column 1 gives the name of the compound; and columns 2 and 3, the percent prolactin inhibition at the 0.5 and 5 mg/kg dose levels."}},
  "note": "Counter-ions that a name gives are not always drawn.",
  "data": [
    {"smiles": "CCCN1C[C@H](CO)C[C@@H]2Cc3c[nH]cc3C[C@H]21", "note": "(relative stereo) [trans-dl-5-n-propyl-7-hydroxymethyl-4,4a,5,6,7,8,8a,9-octahydropyrrolo[3,4-g]quinoline]", "values": [
      {"measurement": "% of Rats Exhibiting Turning Behavior", "setting": "[1]", "result": 100, "unit": "%"},
      {"measurement": "Average Number of Turns/rat", "setting": "[1]", "result": 109, "unit": "Turns/rat"}
    ]},
    {"smiles": "CCCN1CCC[C@@H]2Cc3c[nH]cc3C[C@H]21", "note": "(relative stereo)", "values": [
      {"measurement": "LD50", "setting": "[2]; in vivo, ip, intraperitoneal, indicated from lethality at the doses tested", "result": "30 to 100", "unit": "mg/kg"},
      {"measurement": "deaths", "setting": "[2]; intraperitoneal dosages of 10-30 mg./kg.", "result": "no deaths"},
      {"measurement": "lethality", "setting": "[2]; intraperitoneal dosages of 100-300 mg./kg.", "result": "fatal"}
    ]},
    {"smiles": "CCCN1CCC[C@@H]2Cc3c[nH]cc3C[C@H]21", "note": "(relative stereo) [trans-dl-5-n-Propyl-4,4a,5,6,7,8,8a,9-octahydro-2H-pyrrolo-[3,4-g]quinoline maleate]", "values": [
      {"measurement": "% of Rats Exhibiting Turning Behavior", "setting": "[1]", "result": 100, "unit": "%"},
      {"measurement": "Average Number of Turns/rat", "setting": "[1]", "result": 169, "unit": "Turns/rat"},
      {"measurement": "Percent Prolactin Inhibition at Given Dose", "setting": "[3]; 5 mg/kg intraperitoneal", "result": 95, "unit": "%"}
    ]},
    {"smiles": "CN1CCC[C@@H]2Cc3c[nH]cc3C[C@H]21", "note": "(relative stereo) [trans-dl-5-Methyl-4,4a,5,6,7,8,8a,9-octahydro-2H-pyrrolo[3,4-g]quinoline maleate]", "values": [
      {"measurement": "% of Rats Exhibiting Turning Behavior", "setting": "[1]", "result": 33, "unit": "%"},
      {"measurement": "Average Number of Turns/rat", "setting": "[1]", "result": 20, "unit": "Turns/rat"},
      {"measurement": "Percent Prolactin Inhibition at Given Dose", "setting": "[3]; 0.5 mg/kg intraperitoneal", "result": 23, "unit": "%"},
      {"measurement": "Percent Prolactin Inhibition at Given Dose", "setting": "[3]; 5 mg/kg intraperitoneal", "result": 90, "unit": "%"}
    ]}
  ]
}
